Test results taken from patent US10053462B2, “P2X7 modulators” (Jansssen Pharmaceutica NV, priority 2013, dated 2018).
Where two headings read alike, the source gives them in different places.

Target: P2X7 (Homo sapiens (Human), UniProt Q99572)
Assay: P2X7 antagonism in human peripheral blood mononuclear cells (PBMCs), IL-1β release
Format: cell-based
Details: LPS 30 ng/ml + Bz-ATP 0.5 mM; for remaining activity at 10 µM: read-out: PBMC 10 μM (% control); for PBMC 10 μM (% control): Table 1, 10 μM compound
Experimental: P2X7 Antagonism in Human Peripheral Blood Mononuclear Cells (PBMCs) and Human Whole Blood.
Human blood was collected using a blood donor program. PBMCs were isolated from blood using a Ficoll density gradient technique. Briefly, blood was laid on Ficoll solution and centrifuged at RT for 20 minutes at 2000 rpm. The buffy layer (between red blood cells and plasma) was carefully collected by aspiration, washed with PBS and centrifuged again at 1500 rpm for 15 minutes. The resulting cell pellet was washed and plated on 96 well-plates for experiments. For the Human Whole Blood experiments, 150 μl of human blood was platted on 96 well-plates. Lipopolysaccharide (LPS) (30 ng/ml) was added to each well and incubated for 1 hour. Test compounds were then added and incubated for 30 minutes. The P2X7 agonist, 2′(3′)-O-(4-benzoylbenzoyl) adenosine 5′-triphosphate (Bz-ATP) was then added at a final concentration of 0.5 mM (PBMC) or 1 mM (blood). Cells were incubated for an additional 1.5 hours. At that point, supernatant was collected and stored for IL-1β assay using manufacturer's protocol for enzyme-linked immunosorbent assay (ELISA). Data was expressed as percent control, where control is defined as the difference in IL-1β release in LPS+Bz-ATP samples and LPS only samples. Data was plotted as response (% control) versus concentration to generate IC50 values. […] Data are analyzed and graphed on Graphpad Prism 5. For analysis, each concentration point is averaged from triplicate values and the averaged values are plotted on Graphpad Prism.

[1] = P2X7, Table 2 (additional runs), 10 μM compound

P2X7, sequence (Q99572 whole entry): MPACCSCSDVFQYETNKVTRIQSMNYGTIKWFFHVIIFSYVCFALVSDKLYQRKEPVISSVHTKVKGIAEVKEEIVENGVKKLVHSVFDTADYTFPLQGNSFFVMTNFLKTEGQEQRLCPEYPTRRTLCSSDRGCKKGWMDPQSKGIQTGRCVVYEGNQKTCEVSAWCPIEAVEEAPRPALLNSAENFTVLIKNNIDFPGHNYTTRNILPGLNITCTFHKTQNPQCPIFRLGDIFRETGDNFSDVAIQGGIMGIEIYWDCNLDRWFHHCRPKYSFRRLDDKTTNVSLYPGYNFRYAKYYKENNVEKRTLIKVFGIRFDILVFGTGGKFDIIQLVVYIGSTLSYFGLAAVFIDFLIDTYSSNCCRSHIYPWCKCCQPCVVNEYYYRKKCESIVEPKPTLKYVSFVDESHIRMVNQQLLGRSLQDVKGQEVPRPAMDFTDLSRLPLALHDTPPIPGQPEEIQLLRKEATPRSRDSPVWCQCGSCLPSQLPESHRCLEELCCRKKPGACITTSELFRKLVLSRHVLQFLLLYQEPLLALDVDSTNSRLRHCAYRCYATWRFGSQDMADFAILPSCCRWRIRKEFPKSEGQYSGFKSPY

| SMILES | remaining activity at 10 µM [1] | remaining activity at 10 µM (P2X7, Table 1, 10 μM compound) | PBMC 10 μM (% control) |
| --- | --- | --- | --- |
| O=C(c1cccc(C(F)(F)F)c1Cl)N1[C@@H]2CCC[C@H]1c1nnc(-c3cccnn3)n1C2 (stereo in doubt) [Example 195, (6R,10S)-11-{[2-Chloro-3-(trifluoromethyl)phenyl]carbonyl}-3-pyridazin-3-yl-5,6,7,8,9,10-hexahydro-6,10-epimino[1,2,4]triazolo[4,3-a]azocine] | 11.2% |  |  |
| O=C(c1cccc(C(F)(F)F)c1Cl)N1[C@H]2CCC[C@@H]1c1nnc(-c3ccc(F)cc3)n1C2 (stereo in doubt) [Example 5, (6S*,10R*)-11-{[2-Chloro-3-(trifluoromethyl)phenyl]carbonyl}-3-(4-fluorophenyl)-5,6,7,8,9,10-hexahydro-6,10-epimino[1,2,4]triazolo[4,3-a]azocine] | -4.4% | -4.4% |  |
| O=C(c1ccnc(C(F)(F)F)c1F)N1[C@@H]2CCC[C@H]1c1nnc(-c3ccccn3)n1C2 (stereo in doubt) [Example 198, (6R,10S)-11-{[3-Fluoro-2-(trifluoromethyl)pyridin-4-yl]carbonyl}-3-pyridin-2-yl-5,6,7,8,9,10-hexahydro-6,10-epimino[1,2,4]triazolo[4,3-a]azocine] | 4.1% |  |  |
| O=C(c1ccc(Cl)cc1Cl)N1[C@@H]2CCC[C@H]1c1nnc(-c3ncc(F)cn3)n1C2 (stereo in doubt) [Example 21, (6R*,10S*)-11-[(2,4-Dichlorophenyl)carbonyl]-3-(5-fluoropyrimidin-2-yl)-5,6,7,8,9,10-hexahydro-6,10-epimino[1,2,4]triazolo[4,3-a]azocine] | -2.1% | -2.1% |  |
| Cc1ncsc1-c1nnc2n1C[C@@H]1CC[C@H]2N1C(=O)c1cccc(C(F)(F)F)c1Cl [Example 59, (6S,9R)-10-{[2-Chloro-3-(trifluoromethyl)phenyl]carbonyl}-3-(4-methyl-1,3-thiazol-5-yl)-6,7,8,9-tetrahydro-5H-6,9-epimino[1,2,4]triazolo[4,3-a]azepine] | 0.6% |  | 0.6 % control |
| O=C(c1ccnc(C(F)(F)F)c1Cl)N1[C@@H]2CCC[C@H]1c1nnc(-c3ccccn3)n1C2 (stereo in doubt) [Example 199, (6R,10S)-11-{[3-Chloro-2-(trifluoromethyl)pyridin-4-yl]carbonyl}-3-pyridin-2-yl-5,6,7,8,9,10-hexahydro-6,10-epimino[1,2,4]triazolo[4,3-a]azocine] | -3.2% |  |  |
| O=C(c1ccnc(C(F)(F)F)c1Cl)N1[C@@H]2CCC[C@H]1c1nnc(-c3cccs3)n1C2 (stereo in doubt) [Example 36, (6R*,10S*)-11-{[3-Chloro-2-(trifluoromethyl)pyridin-4-yl]carbonyl}-3-thiophen-2-yl-5,6,7,8,9,10-hexahydro-6,10-epimino[1,2,4]triazolo[4,3-a]azocine] | -1.2% | -1.2% |  |
| Cc1c(C(=O)N2[C@H]3CC[C@@H]2c2nnc(-c4cscn4)n2C3)cccc1C(F)(F)F [Example 53, (6S,9R)-10-{[2-Methyl-3-(trifluoromethyl)phenyl]carbonyl}-3-(1,3-thiazol-4-yl)-6,7,8,9-tetrahydro-5H-6,9-epimino[1,2,4]triazolo[4,3-a]azepine] | 4% |  | 4.0 % control |
| Cc1cccc(-c2nnc3n2C[C@@H]2CCC[C@H]3N2C(=O)c2cccc(C(F)(F)F)c2Cl)n1 (stereo in doubt) [Example 23, (6S*,10R*)-11-{[2-Chloro-3-(trifluoromethyl)phenyl]carbonyl}-3-(6-methylpyridin-2-yl)-5,6,7,8,9,10-hexahydro-6,10-epimino[1,2,4]triazolo[4,3-a]azocine] | 8% | 8% |  |
| O=C(c1cccc(C(F)(F)F)c1Cl)N1[C@H]2CCC[C@@H]1c1nnc(-c3ncccn3)n1C2 (stereo in doubt) [Example 2, (6S*,10R*)-11-{[2-Chloro-3-(trifluoromethyl)phenyl]carbonyl}-3-pyrimidin-2-yl-5,6,7,8,9,10-hexahydro-6,10-epimino[1,2,4]triazolo[4,3-a]azocine] | 45.7% | 45.7% |  |
| O=C(c1cccc(C(F)(F)F)c1Cl)N1[C@@H]2CCC[C@H]1c1nnc(-c3ncccn3)n1C2 (stereo in doubt) [Example 3, (6R*,10S*)-11-{[2-Chloro-3-(trifluoromethyl)phenyl]carbonyl}-3-pyrimidin-2-yl-5,6,7,8,9,10-hexahydro-6,10-epimino[1,2,4]triazolo[4,3-a]azocine] | 8.9% | 8.9% |  |
| O=C(c1cccc(C(F)(F)F)c1Cl)N1[C@H]2CCC[C@@H]1c1nnc(-c3ccc(F)cn3)n1C2 (stereo in doubt) [Example 11, (6S*,10R*)-11-{[2-Chloro-3-(trifluoromethyl)phenyl]carbonyl}-3-(5-fluoropyridin-2-yl)-5,6,7,8,9,10-hexahydro-6,10-epimino[1,2,4]triazolo[4,3-a]azocine] | 38.9% | 38.9% |  |
| O=C(c1ccc(Cl)c(F)c1Cl)N1[C@@H]2CCC[C@H]1c1nnc(-c3ccccn3)n1C2 (stereo in doubt) [Example 202, (6R,10S)-11-[(2,4-Dichloro-3-fluorophenyl)carbonyl]-3-pyridin-2-yl-5,6,7,8,9,10-hexahydro-6,10-epimino[1,2,4]triazolo[4,3-a]azocine] | -2.3% |  |  |
| Cc1ccnc(-c2nnc3n2C[C@H]2CCC[C@@H]3N2C(=O)c2cccc(C(F)(F)F)c2Cl)c1 (stereo in doubt) [Example 194, (6R,10S)-11-{[2-Chloro-3-(trifluoromethyl)phenyl]carbonyl}-3-(4-methylpyridin-2-yl)-5,6,7,8,9,10-hexahydro-6,10-epimino[1,2,4]triazolo[4,3-a]azocine] | -13% |  |  |
| COc1ccnc(-c2nnc3n2C[C@@H]2CCC[C@H]3N2C(=O)c2cccc(C(F)(F)F)c2Cl)c1 (stereo in doubt) [Example 26, (6S*,10R*)-11-{[2-Chloro-3-(trifluoromethyl)phenyl]carbonyl}-3-(4-methoxypyridin-2-yl)-5,6,7,8,9,10-hexahydro-6,10-epimino[1,2,4]triazolo[4,3-a]azocine] | 9.2% | 9.2% |  |
| O=C(c1ccnc(C(F)(F)F)c1Cl)N1[C@H]2CCC[C@@H]1c1nnc(-c3cccs3)n1C2 (stereo in doubt) [Example 35, (6S*,10R*)-11-{[3-Chloro-2-(trifluoromethyl)pyridin-4-yl]carbonyl}-3-thiophen-2-yl-5,6,7,8,9,10-hexahydro-6,10-epimino[1,2,4]triazolo[4,3-a]azocine] | 82.2% |  | 82.2 % control |
| Cc1nc(-c2nnc3n2C[C@H]2CCC[C@@H]3N2C(=O)c2cccc(C(F)(F)F)c2Cl)ccc1F (stereo in doubt) [Example 193, (6R,10S)-11-{[2-Chloro-3-(trifluoromethyl)phenyl]carbonyl}-3-(5-fluoro-6-methylpyridin-2-yl)-5,6,7,8,9,10-hexahydro-6,10-epimino[1,2,4]triazolo[4,3-a]azocine] | -13.8% |  |  |
| O=C(c1ccc(F)c(C(F)(F)F)c1Cl)N1[C@@H]2CCC[C@H]1c1nnc(-c3ccccn3)n1C2 (stereo in doubt) [Example 200, (6R,10S)-11-{[2-Chloro-4-fluoro-3-(trifluoromethyl)phenyl]carbonyl}-3-pyridin-2-yl-5,6,7,8,9,10-hexahydro-6,10-epimino[1,2,4]triazolo[4,3-a]azocine] | 7.7% |  |  |
| O=C(c1cccc(C(F)(F)F)c1Cl)N1[C@@H]2CCC[C@H]1c1nnc(-c3ccncn3)n1C2 (stereo in doubt) [Example 197, (6R,10S)-11-{[2-Chloro-3-(trifluoromethyl)phenyl]carbonyl}-3-pyrimidin-4-yl-5,6,7,8,9,10-hexahydro-6,10-epimino[1,2,4]triazolo[4,3-a]azocine] | 1.8% |  |  |
| O=C(c1cccc(C(F)(F)F)c1Cl)N1[C@H]2CC[C@@H]1c1nnc(-c3ncccn3)n1C2 [Example 46, (6S,9R)-10-{[2-Chloro-3-(trifluoromethyl)phenyl]carbonyl}-3-pyrimidin-2-yl-6,7,8,9-tetrahydro-5H-6,9-epimino[1,2,4]triazolo[4,3-a]azepine] | 10% |  | 10.0 % control |
| O=C(c1cccc(C(F)(F)F)c1Cl)N1[C@H]2CCC[C@@H]1c1nnc(-c3cscn3)n1C2 (stereo in doubt) [Example 8, (6S*,10R*)-11-{[2-Chloro-3-(trifluoromethyl)phenyl]carbonyl}-3-(1,3-thiazol-4-yl)-5,6,7,8,9,10-hexahydro-6,10-epimino[1,2,4]triazolo[4,3-a]azocine] | 7.3% | 7.3% |  |
